Entries after “also recorded” stand apart in the source; their conditions may differ. Read-outs that look alike come from different tables or passages of the source.
Columns and labels:
[1] = biological target: T1, tPA/plasminogen (Homo sapiens, UniProt P00750); assay: tPA/plasminogen activation by OVA heated in the presence of compounds (substrate PNAPEP1751); format: biochemical; conditions: 25 μg/ml OVA, 25 μg/ml compound, […] DMSO
T1 construct: purchased Boehringer Ingelheim Actilyse
Procedure, shortened: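 Ovalbumin heated alone in PBS/1% DMSO (positive control) or with compounds at 1 mg/ml, then used 40-fold diluted in a tPA/plasminogen activation assay; buffer without OVA as negative control. Chromogenic substrate conversion read at 405 nm, with compound interference at 405 nm checked; signals related to control.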

[2] = test system: misfolded proteins (Hb-AGE, Aβ); assay: Binding of misfolded proteins from solution to immobilized small compounds (overall); conditions: compounds coated on ELISA plates, Hb-AGE or Aβ in solution
Procedure: (§1) To test the ability of the twelve selected compounds (see Table 7) to bind to misfolded proteins, the compounds were immobilized at 10/100/1000 μg/ml in the wells of 96-wells Greiner Microlon high binding plates, Nunc amino Immobilizer plates and Nunc Maxisorp plates. Compounds were coated in 100 mM NaHCO3 pH 9.6, 50 μl/well, 1 h at room temperature with agitation. As a control, wells were coated with buffer only. After blocking of the plates, wells were overlayed with solutions of 0.1/1/10 μg/ml Hb-AGE or 10/100 μg/ml Aβ, in binding buffer (PBS/0.1% Tween20). After washing, binding of Hb-AGE was assessed by overlaying wells with 1 μg/ml hybridoma antibody 4B5, which binds to glycations(^2), followed by RAMPO. Binding of Aβ was visualized using 500× diluted anti-Aβ antibodies (mouse antibody beta-amyloid Clone 6F/3D #M0872, lot 00003503, DAKOCytomation; β-amyloid (H-43) SC-9129, 200 μg/ml rabbit polyclonal IgG, Santa Cruz Biotechnology) and RAMPO/SWARPO in a 1:1 ratio. Finally, wells were overlayed with OPD/H2O2 solution, and H2SO4, before absorbance readings at 490 nm.

[3] = biological target: T2, Aβ (Homo sapiens, UniProt P05067, E693Q); assay: Binding of Aβ from solution to immobilized small compounds; conditions: Aβ 100 μg/ml
T2 construct: Lyophilized human amyloid-β(1-40) with E22Q mutation ‘Dutch type’; purchased Peptide facility, Dutch Cancer Institute, Amsterdam; host or cells: synthetic peptide
Procedure: as §1, with “the compounds were immobilized at 10/100/1000 μg/ml in the wells of 96-wells” left out

[4] = information found on the www, search completed Spring 2006, cited from earlier work
[5] = biological target: T3, Hb-AGE (glucose-6-phosphate modified human haemoglobin) (Homo sapiens, UniProt P68871+P69905); assay: ELISA binding of tPA to immobilized Hb-AGE, compounds co-incubated with tPA; conditions: compound mixed with tPA, control without compound = 100
T3 construct: purchased Sigma-Aldrich H7379
T3 sequence (P69905 2-142 limits assumed): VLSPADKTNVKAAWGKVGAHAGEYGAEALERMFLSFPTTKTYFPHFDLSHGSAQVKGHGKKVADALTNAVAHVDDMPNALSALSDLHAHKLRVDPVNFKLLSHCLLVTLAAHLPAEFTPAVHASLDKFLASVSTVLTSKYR
T3 sequence (P68871 2-147 limits assumed): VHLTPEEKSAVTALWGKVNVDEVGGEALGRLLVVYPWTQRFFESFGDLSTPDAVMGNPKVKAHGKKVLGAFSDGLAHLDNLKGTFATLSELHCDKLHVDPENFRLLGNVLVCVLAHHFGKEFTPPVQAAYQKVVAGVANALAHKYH
Procedure: The small compound library is depicted in Tables 4-5. […] Binding experiments were performed in single wells per compound, in a duplicate experiment. Binding data obtained with this duplicate experiment was averaged.
• 1. […] Coat buffer in control wells. • 2. wash three times with wash buffer • 3. Block all wells with 300 μl 0.5*recommended concentration Roche blocking reagent for 30 minutes at room temperature, with agitation • 4. wash twice • 5. […] Incubate for 30 minutes at room temperature, with agitation • 7. wash five times with TBS/0.1% Tween20 • 8. […] Incubate for 30 minutes at room temperature, with agitation • 10. wash five times with TBS/0.1% Tween20 • 11. Fill wells with 3000× diluted horse raddish peroxidase-labeled polyclonal rabbit anti-mouse antibody (RAMPO, DAKOCytomation) • 12. Incubate for 20 minutes at room temperature, with agitation • 13. Wash five times with TBS/0.1% Tween20 • 14. Wash twice with PBS • 15. Stain with 100 μl TMB, stop with 50 μl 10% H2SO4 • 16. Read absorbance at 450 nm

T1 sequence (P00750 36-562): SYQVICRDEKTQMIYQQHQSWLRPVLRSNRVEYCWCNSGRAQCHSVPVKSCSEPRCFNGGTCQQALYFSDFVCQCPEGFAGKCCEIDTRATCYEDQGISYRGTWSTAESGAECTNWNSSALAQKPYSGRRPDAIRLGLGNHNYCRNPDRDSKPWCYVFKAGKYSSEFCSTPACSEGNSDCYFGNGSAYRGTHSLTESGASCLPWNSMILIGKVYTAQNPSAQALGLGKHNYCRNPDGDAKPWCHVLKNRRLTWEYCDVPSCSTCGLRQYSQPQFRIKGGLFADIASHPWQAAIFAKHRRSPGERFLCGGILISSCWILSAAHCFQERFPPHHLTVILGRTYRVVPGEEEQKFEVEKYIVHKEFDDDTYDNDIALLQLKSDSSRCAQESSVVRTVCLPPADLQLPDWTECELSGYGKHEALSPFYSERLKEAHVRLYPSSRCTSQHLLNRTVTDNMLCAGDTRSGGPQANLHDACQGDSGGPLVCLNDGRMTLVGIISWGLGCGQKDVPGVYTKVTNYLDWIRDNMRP

Structure (SMILES)	influence on tPA/plasminogen activation by OVA pre-heated in the presence of compound [1]	capture of misfolded protein from solution by immobilized compound [2]	Signal (a.u.) ([3]; Nunc Maxisorp, coat 100 μg/ml)	Use or activity in vitro/in vivo [4]	% tPA binding to Hb-AGE (co-incubation) [5]	Signal (a.u.) ([3]; Nunc amino Immobilizer, coat 1 μg/ml)	Use or activity in vitro/in vivo ([4]; thalicmidine)
O=c1oc2c(O)c(O)cc3c(=O)oc4c(O)c(O)cc1c4c23 [compound 117, Ellagic acid hydrate]	Inhibition of tPA/plasminogen activation by OVA pre-heated	Capture of misfolded protein from solution	0.054 a.u.	–	–	–	–
COc1cc2c(cc1O)C[C@H]1c3c(cc(OC)c(O)c3-2)CCN1C [compound 202, Isoboldine]	–	Capture of misfolded protein from solution	0.11 a.u.	potency to suppress LPS-induced proliferation in vitro; also recorded: potent antiplasmodial activity	250%	0.08 a.u.	–
COc1cc2c(cc1OC)-c1c(O)c(OC)cc3c1[C@H](C2)N(C)CC3 [compound 201, Thaliporphine, thalicmidine]	–	Capture of misfolded protein from solution	–	–	30%	–	increased survival rate of LPS-treated mice; also recorded: suppression of TNFα, NO. and O^2− production; also recorded: stimulated splenocyte proliferation induced by LPS; also recorded: potent vasoconstrictor

Source: patent US20080267948A1, “Croos-B Structure Binding Compounds” (priority 2005, published 2008)
